Where “and” joins values, the source holds several entries; their conditions need not be identical. Identical values can stand only once. Toxic doses and inconclusive results are not listed.
Tested on: BDF1 mice, P388 leukemia ip, median survival T/C
Assay: NCI In Vivo Anticancer Drug Screen. Data for tumor model P388 Leukemia (intraperitoneal) in B6D2F1 (BDF1) mice
Conditions: endpoint: median survival time, higher = longer survival
In short: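 Survival ratio, drug arm over vehicle arm, in mice with a transplanted tumour.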

[1] = dose: 12.5 mg/kg/injection, schedule: Q01DX009 (ip), vehicle: saline with Tween-80
[2] = dose: 25.0 mg/kg/injection, schedule: Q01DX009 (ip), vehicle: saline with Tween-80
[3] = dose: 50.0 mg/kg/injection, schedule: Q01DX009 (ip), vehicle: saline with Tween-80
[4] = dose: 50.0 mg/kg/injection, schedule: Q01DX009 (ip), vehicle: water
[5] = dose: 100.0 mg/kg/injection, schedule: Q01DX009 (ip), vehicle: saline with Tween-80
[6] = dose: 200.0 mg/kg/injection, schedule: Q01DX009 (ip), vehicle: saline with Tween-80
[7] = dose: 100.0 mg/kg/injection, schedule: Q04DX003 (ip), vehicle: Klucel (hydroxypropylcellulose) (HPC)
[8] = dose: 200.0 mg/kg/injection, schedule: Q04DX003 (ip), vehicle: Klucel (hydroxypropylcellulose) (HPC)
[9] = dose: 400.0 mg/kg/injection, schedule: Q04DX003 (ip), vehicle: Klucel (hydroxypropylcellulose) (HPC)
[10] = dose: 50.0 mg/kg/injection, schedule: Q01DX005 (ip), vehicle: saline with Tween-80
[11] = dose: 100.0 mg/kg/injection, schedule: Q01DX005 (ip), vehicle: saline with Tween-80
[12] = dose: 200.0 mg/kg/injection, schedule: Q01DX005 (ip), vehicle: saline with Tween-80
[13] = dose: 50.0 mg/kg/injection, schedule: Q04DX003 (ip), vehicle: saline
[14] = dose: 100.0 mg/kg/injection, schedule: Q04DX003 (ip), vehicle: saline

For COc1cc(Nc2c3ccccc3nc3ccccc23)cc(OC)c1OC, the T/C [1] was 97 % of control and 99 % of control, the T/C [2] was 112 % of control and the T/C [3] was 109 % of control and 115 % of control.

With Cc1cc(C)nc(NN)n1 the T/C (dose: 6.25 mg/kg/injection, schedule: Q01DX009 (ip), vehicle: saline with Tween-80) was 98 % of control, the T/C [1] was 96 % of control and the T/C [2] was 101 % of control. For the same compound, the T/C [3] was 102 % of control.

CC[CH2][Pb]([Cl])([CH2]CC)[CH2]CC was tested, and the T/C (dose: 0.18 mg/kg/injection, schedule: Q01DX009 (ip), vehicle: DMSO) was 87 % of control, the T/C (dose: 0.37 mg/kg/injection, schedule: Q01DX009 (ip), vehicle: DMSO) was 109 % of control and the T/C (dose: 0.75 mg/kg/injection, schedule: Q01DX009 (ip), vehicle: DMSO) was 102 % of control.

For CC(=O)OC1CC2c3ccccc3C1c1cccc[n+]12 (configuration not stated), the T/C (dose: 2.34 mg/kg/injection, schedule: Q01DX009 (ip), vehicle: Klucel (hydroxypropylcellulose) (HPC)) was 87 % of control, the T/C (dose: 4.68 mg/kg/injection, schedule: Q01DX009 (ip), vehicle: Klucel (hydroxypropylcellulose) (HPC)) was 91 % of control and the T/C (dose: 9.37 mg/kg/injection, schedule: Q01DX009 (ip), vehicle: Klucel (hydroxypropylcellulose) (HPC)) was 91 % of control. The T/C (dose: 18.75 mg/kg/injection, schedule: Q01DX009 (ip), vehicle: Klucel (hydroxypropylcellulose) (HPC)) was 87 % of control.

CCN(CC)CCCC(C)NC(=O)c1ccc(N(C)C)nc1 (configuration not stated) was tested, and the T/C [4] was 93 % of control.

CCCCCCCCC1SC1CCCCCCCC(=O)OCCN(C)C(=O)CCCCCCCC1SC1CCCCCCCC (configuration not stated) was tested, and the T/C (dose: 100.0 mg/kg/injection, schedule: Q04DX003 (ip), vehicle: other) was 100 % of control, the T/C (dose: 200.0 mg/kg/injection, schedule: Q04DX003 (ip), vehicle: other) was 100 % of control and the T/C (dose: 400.0 mg/kg/injection, schedule: Q04DX003 (ip), vehicle: other) was 100 % of control.

With O=C1c2ccccc2-c2cccc3cccc1c23 the T/C (dose: 6.25 mg/kg/injection, schedule: Q01DX001 (ip), vehicle: saline sonified) was 96 % of control, the T/C (dose: 12.5 mg/kg/injection, schedule: Q01DX001 (ip), vehicle: saline sonified) was 96 % of control and the T/C (dose: 25.0 mg/kg/injection, schedule: Q01DX001 (ip), vehicle: saline sonified) was 92 % of control.

With S=c1[nH]c2nccnc2[nH]1 the T/C [2] was 95 % of control, the T/C [3] was 100 % of control and the T/C [5] was 95 % of control. For the same compound, the T/C [6] was 95 % of control and the T/C (dose: 400.0 mg/kg/injection, schedule: Q01DX009 (ip), vehicle: saline with Tween-80) was 104 % of control.

With CCCCC(CC)CC1CCCCC1O (configuration not stated) the T/C (dose: 100.0 mg/kg/injection, schedule: Q01DX009 (ip), vehicle: Klucel (hydroxypropylcellulose) (HPC)) was 87 % of control, the T/C [7] was 122 % of control and the T/C (dose: 200.0 mg/kg/injection, schedule: Q01DX009 (ip), vehicle: Klucel (hydroxypropylcellulose) (HPC)) was 91 % of control. For the same compound, the T/C [8] was 109 % of control and the T/C [9] was 95 % of control.

With O=C(NC(=O)c1c(F)cccc1F)Nc1nc2c(Cl)cccc2s1 the T/C [3] was 93 % of control, the T/C [5] was 93 % of control and the T/C [6] was 94 % of control.

COC(=O)C/C(=C/C=C1/C(=O)ON=C1C)c1c(C)[nH]oc1=O was tested, and the T/C (dose: 100.0 mg/kg/injection, schedule: Q01DX009 (ip), vehicle: saline) was 90 % of control, the T/C (dose: 200.0 mg/kg/injection, schedule: Q01DX009 (ip), vehicle: saline) was 100 % of control and the T/C (dose: 400.0 mg/kg/injection, schedule: Q01DX009 (ip), vehicle: saline) was 95 % of control.

With CN(C)CCNC1=CC(=O)c2ccccc2C1=O the T/C (dose: 12.5 mg/kg/injection, schedule: Q01DX009 (ip), vehicle: water) was 91 % of control, the T/C (dose: 12.5 mg/kg/injection, schedule: Q04DX003 (ip), vehicle: water) was 107 % of control and the T/C (dose: 25.0 mg/kg/injection, schedule: Q01DX009 (ip), vehicle: water) was 102 % of control. The T/C (dose: 25.0 mg/kg/injection, schedule: Q04DX003 (ip), vehicle: water) was 100 % of control, the T/C [4] was 100 % of control and the T/C (dose: 50.0 mg/kg/injection, schedule: Q04DX003 (ip), vehicle: water) was 100 % of control. The T/C (dose: 100.0 mg/kg/injection, schedule: Q01DX009 (ip), vehicle: water) was 98 % of control, the T/C (dose: 100.0 mg/kg/injection, schedule: Q04DX003 (ip), vehicle: water) was 98 % of control and the T/C (dose: 200.0 mg/kg/injection, schedule: Q01DX009 (ip), vehicle: water) was 96 % of control and 105 % of control.

In the case of COc1ccc(CC2c3cc(OC)c(OC)cc3CCN2C(=O)OCc2ccccc2)cc1OC (configuration not stated), the T/C [10] is reported as 91 % of control, the T/C [11] is reported as 93 % of control and the T/C [12] is reported as 92 % of control.

With Cn1cc(N)c2ccccc2c1=O the T/C (dose: 50.0 mg/kg/injection, schedule: Q01DX005 (ip), vehicle: suspension in saline) was 92 % of control and the T/C (dose: 100.0 mg/kg/injection, schedule: Q01DX005 (ip), vehicle: suspension in saline) was 120 % of control.

With CNC(=N)c1ccc(NC(=N)c2ccc(NC(=O)Nc3ccc(NC(=O)Nc4ccc(C(=N)Nc5ccc(C(=N)NC)cc5)cc4)cc3)cc2)cc1 the T/C (dose: 4.0 mg/kg/injection, schedule: Q04DX003 (ip), vehicle: Klucel (hydroxypropylcellulose) (HPC)) was 154 % of control, the T/C (dose: 6.0 mg/kg/injection, schedule: Q04DX003 (ip), vehicle: Klucel (hydroxypropylcellulose) (HPC)) was 150 % of control and 154 % of control and the T/C (dose: 7.0 mg/kg/injection, schedule: Q01DX009 (ip), vehicle: Klucel (hydroxypropylcellulose) (HPC)) was 161 % of control. For the same compound, the T/C (dose: 9.0 mg/kg/injection, schedule: Q04DX003 (ip), vehicle: Klucel (hydroxypropylcellulose) (HPC)) was 159 % of control, the T/C (dose: 11.0 mg/kg/injection, schedule: Q01DX009 (ip), vehicle: Klucel (hydroxypropylcellulose) (HPC)) was 150 % of control and the T/C (dose: 13.0 mg/kg/injection, schedule: Q04DX003 (ip), vehicle: Klucel (hydroxypropylcellulose) (HPC)) was 176 % of control and 177 % of control. The T/C (dose: 16.5 mg/kg/injection, schedule: Q01DX009 (ip), vehicle: Klucel (hydroxypropylcellulose) (HPC)) was 192 % of control, the T/C (dose: 20.0 mg/kg/injection, schedule: Q04DX003 (ip), vehicle: Klucel (hydroxypropylcellulose) (HPC)) was 153 % of control and the T/C (dose: 25.0 mg/kg/injection, schedule: Q01DX009 (ip), vehicle: Klucel (hydroxypropylcellulose) (HPC)) was 231 % of control. The T/C (dose: 30.0 mg/kg/injection, schedule: Q04DX003 (ip), vehicle: Klucel (hydroxypropylcellulose) (HPC)) was 176 % of control, the T/C (dose: 44.0 mg/kg/injection, schedule: Q04DX003 (ip), vehicle: Klucel (hydroxypropylcellulose) (HPC)) was 160 % of control and 207 % of control and the T/C (dose: 67.0 mg/kg/injection, schedule: Q04DX003 (ip), vehicle: Klucel (hydroxypropylcellulose) (HPC)) was 173 % of control and 207 % of control. For the same compound, the T/C [7] was 230 % of control (2×) and 156 % of control and the T/C (dose: 150.0 mg/kg/injection, schedule: Q04DX003 (ip), vehicle: Klucel (hydroxypropylcellulose) (HPC)) was 160 % of control and 211 % of control.

With CCCCCCCCCC(O)CCC (configuration not stated) the T/C [7] was 95 % of control, the T/C [8] was 95 % of control and the T/C [9] was 95 % of control.

In the case of COc1ccc(C(=O)CC(C#N)c2ccc(OC)cc2)cc1 (configuration not stated), the T/C [3] is reported as 106 % of control, the T/C [5] is reported as 106 % of control and the T/C [6] is reported as 101 % of control.

For NS(=O)(=O)Cc1ccccc1, the T/C (dose: 25.0 mg/kg/injection, schedule: Q04DX003 (ip), vehicle: saline) was 100 % of control, the T/C [13] was 100 % of control and the T/C [14] was 100 % of control.

For COc1ccc(OC(=O)N2C=Cc3ccccc3C2C#N)cc1 (configuration not stated), the T/C [13] was 95 % of control, the T/C [14] was 100 % of control and the T/C (dose: 200.0 mg/kg/injection, schedule: Q04DX003 (ip), vehicle: saline) was 112 % of control.

In the case of COC(=O)CCCc1ccc(OC)c(OC)c1, the T/C [1] is reported as 96 % of control, the T/C [2] is reported as 100 % of control and the T/C [3] is reported as 97 % of control and 123 % of control. For the same compound, the T/C [5] was 97 % of control and 113 % of control and the T/C [6] was 105 % of control.

In the case of COC(=O)c1c(OC)ccc2c1CC1C3Nc4ccccc4C3CCN1C2 (configuration not stated), the T/C (dose: 50.0 mg/kg/injection, schedule: Q04DX003 (ip), vehicle: saline sonified) is reported as 100 % of control, the T/C (dose: 100.0 mg/kg/injection, schedule: Q04DX003 (ip), vehicle: saline sonified) is reported as 100 % of control and the T/C (dose: 200.0 mg/kg/injection, schedule: Q04DX003 (ip), vehicle: saline sonified) is reported as 100 % of control.

In the case of O=C(CCC[N+](=O)[O-])c1ccccc1, the T/C [10] is reported as 113 % of control, the T/C [11] is reported as 113 % of control and the T/C [12] is reported as 99 % of control.

With C1CN2CCC1CC2 the T/C [1] was 107 % of control, the T/C (dose: 22.0 mg/kg/injection, schedule: Q01DX009 (ip), vehicle: saline with Tween-80) was 101 % of control and the T/C [2] was 119 % of control. For the same compound, the T/C (dose: 33.0 mg/kg/injection, schedule: Q01DX009 (ip), vehicle: saline with Tween-80) was 122 % of control.
